Values joined by “and” are separate entries in the source; they are usually repeats but may differ in a detail not shown here. Equal values may be shown once. Read-outs that look alike come from different tables or passages of the source.
Experiments:
[1] = format: in vivo, F344 rats; details: rat, inhalation
Protocol: Inhalation Exposure: The initial exposure of BisEDT (Bismuth-1,2-ethanedithiol) was formulated as a […] at 100 mg/mL in suspension in 0.5% Tween 80, 10 mM sodium phosphate, pH 7.4, in NaCl (adjusted to approximately 300 mOsm). Aerosols were generated with a commercial compressed air jet nebulizer, Pad LC Plus, operated with an inlet pressure of 20 psi. The aerosols were transitioned into a rodent nose-only inhalation exposure system. The exposure system was operated with an inlet air flow of −5.2 L/min and an exhaust air flow of −5 L/min.

in vivo = assay: in vivo; design: species or system F344 rats; details: both sexes; for concentration at 30 hr: sac time 30 hr
Protocol: Detailed gross necropsies were performed on all animals (found dead, moribund, or scheduled necropsy) and consisted of a complete external and internal examination including body orifices and cranial, thoracic, and abdominal organs and tissues. All gross findings will be recorded in descriptive terms. […] Lungs collected and weighed.

[2] = format: in vivo, beagle dogs; details: dog, per animal and Grp Avg, sampling times not given
Protocol: Once adequately conditioned to the restraint device and face-masks, the animals are individually exposed to the test article aerosols. Animals receive a single face-mask inhalation exposure in a ramp study design to test article aerosols for up to 60 min. Animal observations during and post exposure determine the tolerance of inhaled BisEDT aerosols.
Blood Collections and Bioanalytical Analysis: Blood are collected for pharmacokinetic (PK) analysis prior to exposure, then at 4 hr (±5 min) post exposure, and again on Day 1, Day 2, Day 7 (pre- and 4 hr (±5 min)-post exposure), Day 8, Day 9, Day 10, Day 11, Day 12, Day 13, and Day 14. A total of 0.25 mL is collected at each timepoint. No PK blood is collected from the vehicle control (Group 1) animals; only animals exposed to BisEDT have blood collected for PK analysis. Collected samples are flash frozen without processing for shipment to Medpace for bioanalytical analysis. Additional blood is collected from all animals in all groups for hematology (1 mL) and clinical chemistry (1 mL) at baseline, Day 7 (pre-exposure), and again at euthanasia. Blood (2-2 mL) is collected from all animals at necropsy for coagulation analysis (d-Dimer, fibrinogen, PT, and PTT).
For hematology analyses, whole blood (1 ml) will be collected with vacutainers containing K3EDTA as an anticoagulant.
Hematology samples are analyzed by automated (ADVIA™ 120 Hematology System, Siemens Medical Solutions Diagnostics, Tarrytown, N.Y.) analyses. Disposition will be recorded on the sample processing form.

[3] = format: in vivo, patients; details: end of treatment (Week 2-3), test of cure (Week 4-5), end of study (Week 8-9)
[4] = Group 2 (55-56 ug/kg lung deposited)
[5] = Group 4 (176-197 ug/kg lung deposited)

For `C1C[S][Bi]([S]CC[S][Bi]2[S]CC[S]2)[S]1` [BisEDT, Bismuth-1,2-ethanedithiol], the “Mean BisEDT Conc, whole blood” value ([1]; dose 47 μg/kg, 8 hr) was 114 ng/mL, the “Mean BisEDT Conc, whole blood” value ([1]; dose 47 μg/kg, 12 hr) was 98 ng/mL and the “Mean BisEDT Conc, whole blood” value ([1]; dose 47 μg/kg, 24 hr) was 282 ng/mL. The “Mean BisEDT Conc, whole blood” value ([1]; dose 47 μg/kg, 30 hr) was 373 ng/mL, the “Mean BisEDT Conc, whole blood” value ([1]; dose 124 μg/kg, 8 hr) was 247 ng/mL and the “Mean BisEDT Conc, whole blood” value ([1]; dose 124 μg/kg, 12 hr) was 187 ng/mL. For the same molecule, the “Mean BisEDT Conc, whole blood” value ([1]; dose 124 μg/kg, 24 hr) was 571 ng/mL, the “Mean BisEDT Conc, whole blood” value ([1]; dose 124 μg/kg, 30 hr) was 668 ng/mL and the “Mean BisEDT Conc, whole blood” value ([1]; dose 400 μg/kg, 8 hr) was 1701 ng/mL. The “Mean BisEDT Conc, whole blood” value ([1]; dose 400 μg/kg, 12 hr) was 1252 ng/mL, the “Mean BisEDT Conc, whole blood” value ([1]; dose 400 μg/kg, 24 hr) was 2700 ng/mL and the “Mean BisEDT Conc, whole blood” value ([1]; dose 400 μg/kg, 30 hr) was 2738 ng/mL. For the same molecule, the “Mean BisEDT Conc, whole blood” value ([1]; dose 3000 μg/kg, 1 hr) was 485 ng/mL, the “Mean BisEDT Conc, whole blood” value ([1]; dose 3000 μg/kg, 2 hr) was 2504 ng/mL and the “Mean BisEDT Conc, whole blood” value ([1]; dose 3000 μg/kg, 8 hr) was 6570 ng/mL. The “Mean BisEDT Conc, whole blood” value ([1]; dose 3000 μg/kg, 24 hr) was 20525 ng/mL, the concentration at 30 hr (in vivo; F344, in vivo, rat, inhalation, dose 47 μg/kg, read-out: Mean BisEDT Conc, lung at sacrifice) was 4.8 ng/g and the concentration at 30 hr (in vivo; F344, in vivo, rat, inhalation, dose 124 μg/kg, read-out: Mean BisEDT Conc, lung at sacrifice) was 5.9 ng/g. The concentration at 30 hr (in vivo; F344, in vivo, rat, inhalation, dose 400 μg/kg, read-out: Mean BisEDT Conc, lung at sacrifice) was 12.1 ng/g, the concentration at 24 hr (in vivo; F344, in vivo, rat, inhalation, dose 3000 μg/kg, sac time 24 hr, read-out: Mean BisEDT Conc, lung at sacrifice) was 82.3 ng/g and the Kp at 24 hours (in vivo; F344, rat, in vivo, rats, 24 hours after dosing, read-out: lung tissue drug levels higher than blood levels) was 4 to 5. For the same molecule, the BASO [2, 4] was 0.12 ^3/uL (2×) and 0.15 ^3/uL and 0.08 ^3/uL (2×) and 0.11 ^3/uL and 0.10 ^3/uL and 0.07 ^3/uL and 0.13 ^3/uL, the EOS [2, 4] was 0.30 ^3/uL and 0.45 ^3/uL and 0.39 ^3/uL and 0.14 ^3/uL and 0.09 ^3/uL and 0.06 ^3/uL and 0.22 ^3/uL and 0.27 ^3/uL and 0.23 ^3/uL and the HCT [2, 4] was 45.8% and 43.1% and 41.8% and 49.0% and 43.7% and 42.9% and 47.4% and 43.4% and 42.4%. For the same molecule, the HGB [2, 4] was 15.6 g/dL and 15.0 g/dL (3×) and 14.2 g/dL and 16.4 g/dL and 14.3 g/dL (2×) and 16.0 g/dL, the LUC [2, 4] was 0.01 ^3/uL (5×) and 0.02 ^3/uL (4×) and the LYMP [2, 4] was 2.81 ^3/uL and 2.73 ^3/uL and 2.09 ^3/uL and 2.27 ^3/uL and 2.82 ^3/uL and 2.61 ^3/uL and 2.54 ^3/uL and 2.78 ^3/uL and 2.35 ^3/uL. The MCH [2, 4] was 22.8 pg (2×) and 23.2 pg (2×) and 22.7 pg and 22.3 pg (2×) and 21.9 pg and 23.0 pg, the MCHC [2, 4] was 34.1 g/dL (2×) and 34.9 g/dL and 33.4 g/dL and 34.4 g/dL and 33.2 g/dL and 33.8 g/dL and 34.7 g/dL and 33.7 g/dL and the MCV [2, 4] was 67.0 fL and 66.4 fL and 66.5 fL and 69.5 fL and 64.8 fL and 66.0 fL and 68.3 fL and 65.6 fL and 66.3 fL. For the same molecule, the MONO [2, 4] was 0.63 ^3/uL and 0.67 ^3/uL and 0.53 ^3/uL and 0.50 ^3/uL and 0.51 ^3/uL (2×) and 0.57 ^3/uL and 0.59 ^3/uL and 0.52 ^3/uL, the NEUT [2, 4] was 5.31 ^3/uL and 5.11 ^3/uL and 2.88 ^3/uL and 3.96 ^3/uL and 4.26 ^3/uL and 4.83 ^3/uL and 4.64 ^3/uL and 4.69 ^3/uL and 3.86 ^3/uL and the PLT [2, 4] was 197 ^3/uL and 166 ^3/uL and 161 ^3/uL and 206 ^3/uL and 294 ^3/uL and 304 ^3/uL and 201.5 ^3/uL and 230.0 ^3/uL and 232.5 ^3/uL. The RBC [2, 4] was 6.83 ^6/uL and 6.49 ^6/uL and 6.28 ^6/uL and 7.05 ^6/uL and 6.74 ^6/uL and 6.50 ^6/uL and 6.94 ^6/uL and 6.62 ^6/uL and 6.39 ^6/uL, the RET % [2, 4] was 0.34% and 0.55% and 0.60% and 0.65% and 0.25% and 0.31% and 0.50% and 0.40% and 0.46% and the WBC [2, 4] was 9.18 ^3/uL and 9.13 ^3/uL and 5.99 ^3/uL and 6.99 ^3/uL and 7.77 ^3/uL and 8.10 ^3/uL and 8.09 ^3/uL and 8.45 ^3/uL and 7.05 ^3/uL. The BASO [2, 5] was 0.07 ^3/uL (3×) and 0.04 ^3/uL (2×) and 0.09 ^3/uL (3×) and 0.06 ^3/uL and 0.08 ^3/uL (2×) and 0.05 ^3/uL and 0.10 ^3/uL (3×), the EOS [2, 5] was 0.48 ^3/uL and 0.50 ^3/uL and 0.35 ^3/uL and 0.95 ^3/uL and 0.77 ^3/uL and 0.47 ^3/uL and 0.72 ^3/uL and 0.64 ^3/uL and 0.41 ^3/uL and 0.18 ^3/uL and 0.13 ^3/uL and 0.19 ^3/uL (2×) and 0.21 ^3/uL and 0.17 ^3/uL and the HCT [2, 5] was 42.7% and 47.5% and 45.4% and 41.9% and 50.6% and 47.6% and 42.30% and 49.05% and 46.50% and 39.8% and 40.7% and 37.1% and 44.2% and 38.45% and 42.45%. For the same molecule, the HGB [2, 5] was 14.8 g/dL and 16.0 g/dL and 14.6 g/dL and 14.7 g/dL and 16.6 g/dL and 15.4 g/dL and 14.75 g/dL and 16.30 g/dL and 15.00 g/dL and 13.7 g/dL and 13.8 g/dL and 12.8 g/dL and 14.3 g/dL and 13.25 g/dL and 14.05 g/dL, the LUC [2, 5] was 0.01 ^3/uL (7×) and 0.02 ^3/uL (8×) and the LYMP [2, 5] was 2.68 ^3/uL and 3.18 ^3/uL and 2.78 ^3/uL (2×) and 2.88 ^3/uL and 3.04 ^3/uL and 2.82 ^3/uL and 3.11 ^3/uL and 2.80 ^3/uL and 2.46 ^3/uL and 2.59 ^3/uL and 2.32 ^3/uL and 2.87 ^3/uL and 2.39 ^3/uL and 2.73 ^3/uL. The MCH [2, 5] was 23.0 pg and 23.4 pg and 22.9 pg (2×) and 22.8 pg and 23.1 pg and 22.90 pg (2×) and 23.25 pg and 24.1 pg and 20.9 pg and 21.0 pg and 24.2 pg and 22.55 pg (2×), the MCHC [2, 5] was 34.7 g/dL and 33.6 g/dL and 32.2 g/dL and 35.2 g/dL and 32.8 g/dL and 32.4 g/dL (2×) and 34.95 g/dL and 33.20 g/dL (2×) and 32.30 g/dL and 34.4 g/dL and 34.0 g/dL and 34.6 g/dL and 34.50 g/dL and the MCV [2, 5] was 66.3 fL and 69.7 fL and 71.3 fL and 64.8 fL and 70.4 fL and 70.9 fL and 65.55 fL and 70.05 fL and 71.10 fL and 70.1 fL and 61.6 fL and 60.8 fL and 74.7 fL and 65.45 fL and 68.15 fL. For the same molecule, the MONO [2, 5] was 0.39 ^3/uL (2×) and 0.37 ^3/uL (2×) and 0.49 ^3/uL and 0.50 ^3/uL (2×) and 0.44 ^3/uL (2×) and 0.38 ^3/uL and 0.73 ^3/uL and 0.45 ^3/uL and 0.61 ^3/uL and 0.59 ^3/uL and 0.56 ^3/uL, the NEUT [2, 5] was 4.61 ^3/uL and 5.96 ^3/uL (2×) and 6.30 ^3/uL and 5.98 ^3/uL and 5.95 ^3/uL and 6.74 ^3/uL and 5.30 ^3/uL and 6.52 ^3/uL and 6.73 ^3/uL and 4.11 ^3/uL and 3.60 ^3/uL and 7.39 ^3/uL and 5.17 ^3/uL and 5.75 ^3/uL and the PLT [2, 5] was 208 ^3/uL and 214 ^3/uL and 213 ^3/uL and 246 ^3/uL and 238 ^3/uL and 251 ^3/uL and 227.00 ^3/uL and 226.00 ^3/uL and 232.00 ^3/uL and 257 ^3/uL and 308 ^3/uL and 313 ^3/uL and 248 ^3/uL and 285.00 ^3/uL and 278.00 ^3/uL. For the same molecule, the RBC [2, 5] was 6.44 ^6/uL and 6.81 ^6/uL and 6.37 ^6/uL and 6.46 ^6/uL and 7.19 ^6/uL and 6.71 ^6/uL and 6.45 ^6/uL and 7.00 ^6/uL and 6.54 ^6/uL and 5.68 ^6/uL and 6.61 ^6/uL and 6.11 ^6/uL and 5.92 ^6/uL and 5.90 ^6/uL and 6.27 ^6/uL, the RET % [2, 5] was 0.41% and 0.33% and 0.58% and 0.27% and 0.62% and 0.43% and 0.34% and 0.48% and 0.51% (2×) and 1.07% and 0.88% and 0.83% and 0.79% and 0.86% and the WBC [2, 5] was 8.23 ^3/uL and 10.09 ^3/uL and 9.86 ^3/uL and 10.41 ^3/uL and 10.37 ^3/uL and 10.50 ^3/uL and 9.32 ^3/uL (2×) and 10.23 ^3/uL and 10.18 ^3/uL and 10.21 ^3/uL and 7.45 ^3/uL and 6.63 ^3/uL and 11.18 ^3/uL and 8.42 ^3/uL. The “proportion of subjects with >50% reduction in wound surface area from baseline vs placebo” value [3] was “A larger proportion”.
